Laboratory results reported in ChEMBL document CHEMBL1201862, “PubChem BioAssay data set” (2004).
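All cell lines were grown in 96-well plates and treated with compound for 48 hours. At the GI50, growth is halved.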 The source made the active and inactive calls. Rule as the data show it: active = GI50 up to about 1.1 µM and inactive = higher.

How the values were obtained:
Assay in all cases: NCI tumour cell line growth inhibition, 48 h
BT-549 = test system: BT-549
TK-10 = test system: TK-10
SK-MEL-28 = test system: SK-MEL-28
RXF 393 = test system: RXF 393
HCT-15 = test system: HCT-15
CCRF-CEM = test system: CCRF-CEM
DU-145 = test system: DU-145
SNB-75 = test system: SNB-75
M14 = test system: M14
RPMI-8226 = test system: RPMI-8226
SR = test system: SR
SF-539 = test system: SF-539
CAKI-1 = test system: CAKI-1
HT-29 = test system: HT-29
OVCAR-4 = test system: OVCAR-4
PC-3 = test system: PC-3
K562 = test system: K562
MDA-N = test system: MDA-N
SF-295 = test system: SF-295
MOLT-4 = test system: MOLT-4
MCF7 = test system: MCF7
UO-31 = test system: UO-31
SK-MEL-5 = test system: SK-MEL-5
HCT-116 = test system: HCT-116
NCI/ADR-RES = test system: NCI/ADR-RES
786-0 = test system: 786-0
NCI-H226 = test system: NCI-H226
SN12C = test system: SN12C
OVCAR-8 = test system: OVCAR-8
NCI-H460 = test system: NCI-H460
IGROV-1 = test system: IGROV-1
NCI-H522 = test system: NCI-H522
SF-268 = test system: SF-268
UACC-257 = test system: UACC-257
HCC 2998 = test system: HCC 2998
Malme-3M = test system: Malme-3M
KM12 = test system: KM12
NCI-H23 = test system: NCI-H23
HOP-92 = test system: HOP-92
U-251 = test system: U-251
COLO 205 = test system: COLO 205
T47D = test system: T47D
MDA-MB-231 = test system: MDA-MB-231
MDA-MB-435 = test system: MDA-MB-435
OVCAR-3 = test system: OVCAR-3
SNB-19 = test system: SNB-19
A549 = test system: A549
ACHN = test system: ACHN
HL-60 = test system: HL-60
UACC-62 = test system: UACC-62
SK-MEL-2 = test system: SK-MEL-2
OVCAR-5 = test system: OVCAR-5
SW-620 = test system: SW-620
A498 = test system: A498
EKVX = test system: EKVX
HOP-62 = test system: HOP-62
SK-OV-3 = test system: SK-OV-3
LOX IMVI = test system: LOX IMVI
Hs-578T = test system: Hs-578T

Measured: GI50

O=C(/C=C/c1ccc(O)c(O)c1)OCCc1cccc2ccccc12
active: CCRF-CEM 0.501 µM | SR 0.841 µM | NCI-H522 0.948 µM
1.28 µM: HCT-15
inactive: BT-549 7.85 µM | TK-10 3.4 µM | SK-MEL-28 4.15 µM | RXF 393 9.44 µM | DU-145 5.48 µM | SNB-75 2.52 µM | M14 5.65 µM | RPMI-8226 2.3 µM | SF-539 4.79 µM | CAKI-1 8.36 µM | HT-29 13.4 µM | OVCAR-4 10.7 µM | PC-3 3.88 µM | K562 2.77 µM | MDA-N 1.87 µM | SF-295 5.26 µM | MOLT-4 1.61 µM | MCF7 7.31 µM | UO-31 4.21 µM | SK-MEL-5 2.24 µM | HCT-116 3.24 µM | NCI/ADR-RES 6.15 µM | 786-0 3 µM | NCI-H226 22 µM | SN12C 2.56 µM | OVCAR-8 5.07 µM | NCI-H460 12.1 µM | IGROV-1 2.76 µM | SF-268 4.76 µM | UACC-257 11.1 µM | HCC 2998 11.1 µM | Malme-3M 6.5 µM | KM12 3.55 µM | NCI-H23 3.72 µM | HOP-92 10.6 µM | U-251 6.15 µM | COLO 205 5.69 µM | T47D 12.6 µM | MDA-MB-231 2.33 µM | MDA-MB-435 2.02 µM | OVCAR-3 2.32 µM | SNB-19 10.6 µM | A549 4.54 µM | ACHN 3.78 µM | HL-60 1.38 µM | UACC-62 4.27 µM | SK-MEL-2 3.44 µM | OVCAR-5 14.4 µM | SW-620 5.07 µM | A498 11.5 µM

Cc1cccc2c1c(=O)c1c(O)cc3c(c1n2C)C=CC(C)(C)O3
inactive: BT-549 > 100 µM | TK-10 64.9 µM | SK-MEL-28 > 100 µM | RXF 393 > 100 µM | CCRF-CEM > 100 µM | DU-145 > 100 µM | SNB-75 > 100 µM | EKVX 33.9 µM | M14 > 100 µM | RPMI-8226 > 100 µM | SR > 100 µM | SF-539 > 100 µM | CAKI-1 > 100 µM | HT-29 9.1 µM | OVCAR-4 > 100 µM | PC-3 > 100 µM | K562 18.1 µM | MDA-N > 100 µM | SF-295 > 100 µM | MOLT-4 > 100 µM | MCF7 > 100 µM | SK-MEL-5 75 µM | HCT-116 > 100 µM | NCI/ADR-RES > 100 µM | 786-0 > 100 µM | NCI-H226 96.4 µM | HOP-62 > 100 µM | SN12C > 100 µM | OVCAR-8 > 100 µM | NCI-H460 > 100 µM | IGROV-1 62.7 µM | NCI-H522 > 100 µM | SF-268 > 100 µM | UACC-257 > 100 µM | HCC 2998 > 100 µM | Malme-3M > 100 µM | SK-OV-3 > 100 µM | KM12 70.3 µM | NCI-H23 > 100 µM | HOP-92 > 100 µM | U-251 > 100 µM | COLO 205 33.7 µM | MDA-MB-231 > 100 µM | MDA-MB-435 > 100 µM | OVCAR-3 > 100 µM | SNB-19 > 100 µM | A549 > 100 µM | ACHN > 100 µM | HL-60 > 100 µM | LOX IMVI > 100 µM | UACC-62 > 100 µM | SK-MEL-2 > 100 µM | OVCAR-5 > 100 µM | SW-620 > 100 µM | Hs-578T > 100 µM | A498 > 100 µM
> 100 µM: HCT-15

CC(C)Sc1nc(C#N)cc2c1CCCC2
inactive: BT-549 99.1 µM | TK-10 > 100 µM | SK-MEL-28 29.7 µM | RXF 393 27.7 µM | CCRF-CEM 24.8 µM | DU-145 > 100 µM | SNB-75 > 100 µM | EKVX 49.4 µM | M14 48.6 µM | RPMI-8226 26.4 µM | SR 20.7 µM | SF-539 42.5 µM | CAKI-1 > 100 µM | HT-29 > 100 µM | OVCAR-4 53.1 µM | PC-3 38.2 µM | K562 48.9 µM | MDA-N 37.7 µM | SF-295 40.9 µM | MOLT-4 19.5 µM | MCF7 39.4 µM | UO-31 47.6 µM | SK-MEL-5 15.8 µM | HCT-116 44.7 µM | NCI/ADR-RES 39.2 µM | 786-0 54 µM | NCI-H226 40.6 µM | HOP-62 85.7 µM | SN12C 51.3 µM | OVCAR-8 63.5 µM | NCI-H460 48.9 µM | IGROV-1 96.2 µM | NCI-H522 21.1 µM | SF-268 50.7 µM | UACC-257 39.9 µM | HCC 2998 74.8 µM | Malme-3M 36.1 µM | SK-OV-3 72.9 µM | KM12 28.6 µM | NCI-H23 58.9 µM | HOP-92 33.5 µM | U-251 46.5 µM | COLO 205 20.1 µM | T47D 56.9 µM | MDA-MB-231 57.1 µM | MDA-MB-435 47 µM | OVCAR-3 30.3 µM | SNB-19 > 100 µM | A549 37.1 µM | ACHN 40.6 µM | LOX IMVI 25.4 µM | UACC-62 91.8 µM | SK-MEL-2 23.2 µM | OVCAR-5 > 100 µM | SW-620 37.8 µM | A498 37.1 µM
37.6 µM: HCT-15

O=c1ccc(-c2ccc(-n3ccnc3)cc2)nn1CCO
inactive: BT-549 > 100 µM | TK-10 > 100 µM | SK-MEL-28 > 100 µM | RXF 393 > 100 µM | CCRF-CEM > 100 µM | DU-145 > 100 µM | SNB-75 39.9 µM | EKVX 46.6 µM | M14 > 100 µM | RPMI-8226 > 100 µM | SR > 100 µM | SF-539 > 100 µM | CAKI-1 > 100 µM | HT-29 > 100 µM | OVCAR-4 > 100 µM | PC-3 > 100 µM | MDA-N > 100 µM | SF-295 > 100 µM | MOLT-4 > 100 µM | MCF7 89.3 µM | UO-31 > 100 µM | SK-MEL-5 > 100 µM | HCT-116 > 100 µM | 786-0 > 100 µM | HOP-62 > 100 µM | SN12C > 100 µM | OVCAR-8 > 100 µM | NCI-H460 > 100 µM | IGROV-1 > 100 µM | NCI-H522 > 100 µM | SF-268 > 100 µM | UACC-257 > 100 µM | HCC 2998 > 100 µM | Malme-3M > 100 µM | SK-OV-3 > 100 µM | KM12 > 100 µM | NCI-H23 > 100 µM | HOP-92 > 100 µM | U-251 > 100 µM | COLO 205 > 100 µM | MDA-MB-435 > 100 µM | OVCAR-3 > 100 µM | SNB-19 > 100 µM | A549 > 100 µM | ACHN > 100 µM | HL-60 > 100 µM | UACC-62 > 100 µM | OVCAR-5 > 100 µM | SW-620 > 100 µM | Hs-578T > 100 µM | A498 > 100 µM
> 100 µM: HCT-15

COc1c(O)cc(C(=O)O[C@@H]2Cc3c(O)cc(O)cc3O[C@@H]2c2cc(O)c(O)c(O)c2)cc1O
inactive: BT-549 25.3 µM | TK-10 > 100 µM | SK-MEL-28 > 100 µM | RXF 393 18.4 µM | DU-145 20.3 µM | EKVX 24.8 µM | M14 59.4 µM | RPMI-8226 24.3 µM | SR 18.7 µM | CAKI-1 > 100 µM | HT-29 18.2 µM | OVCAR-4 20.2 µM | PC-3 68.1 µM | K562 22.8 µM | MDA-N 24.4 µM | SF-295 20.3 µM | MOLT-4 24.2 µM | MCF7 20 µM | UO-31 23 µM | SK-MEL-5 26.7 µM | HCT-116 17.9 µM | NCI/ADR-RES 32.9 µM | 786-0 18.5 µM | HOP-62 30.7 µM | SN12C 19.7 µM | OVCAR-8 23.3 µM | NCI-H460 24.5 µM | IGROV-1 46.2 µM | NCI-H522 24.4 µM | SF-268 20.5 µM | UACC-257 53.3 µM | HCC 2998 97.1 µM | Malme-3M > 100 µM | SK-OV-3 > 100 µM | KM12 20.1 µM | NCI-H23 31.5 µM | HOP-92 > 100 µM | T47D 26.2 µM | MDA-MB-435 17.4 µM | OVCAR-3 49.4 µM | SNB-19 21.4 µM | A549 23 µM | ACHN 30.6 µM | HL-60 19.7 µM | LOX IMVI 19.7 µM | UACC-62 25.8 µM | SK-MEL-2 63.2 µM | OVCAR-5 39.4 µM | SW-620 28.2 µM | Hs-578T > 100 µM | A498 94.6 µM
26.5 µM: HCT-15
